PubChem BioAssay (NCI)
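Tested at 5 concentrations; 48 h exposure; 96-well plates; endpoints linearly interpolated, else capped at highest concentration. TGI: concentration producing complete growth inhibition.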

Experiments:
Assay in all cases: NCI anticancer screen, dose series, 48 h
[1] = tested on: T-47D breast
[2] = tested on: SF-295 CNS
[3] = tested on: CAKI-1 renal
[4] = tested on: 786-0 renal
[5] = tested on: SK-MEL-5 melanoma
[6] = tested on: A549 NSCLC
[7] = tested on: HCT-15 colon
[8] = tested on: SK-MEL-28 melanoma
[9] = tested on: K-562 leukemia
[10] = tested on: NCI-H226 lung

Row | SMILES | TGI [1] | TGI [2] | TGI [3] | TGI [4] | TGI [5] | TGI [6] | TGI [7] | TGI [8] | TGI [9] | TGI [10]
1 | O=C(N/N=C/c1ccc(O)cc1)NNCCO | > 100 µM | > 100 µM | > 100 µM | > 100 µM | > 100 µM | > 100 µM | > 100 µM | > 100 µM | > 100 µM | > 100 µM
2 | Nc1ccc(Oc2ccc(C34CC5CC(C3)CC(c3ccc(Oc6ccc(N)c(O)c6)cc3)(C5)C4)cc2)cc1O | 4.07 µM | 5.1 µM | 3.57 µM | > 46 µM | 4.37 µM | 3.24 µM | 4.37 µM | 6.21 µM | > 100 µM | 9.93 µM
3 | OC[C@H](O)[C@@H](OCc1ccccc1)[C@H](NCc1ccccc1)c1cccs1 | > 100 µM | > 100 µM | > 100 µM | > 100 µM | > 100 µM | > 100 µM | > 100 µM | > 100 µM | > 100 µM | > 100 µM
4 | CCCCCCCCC/C=C1/CC(CO)(COC(=O)C2CCCCC2)OC1=O (stereo not given) | > 100 µM | > 100 µM | > 100 µM | > 100 µM | > 100 µM | > 100 µM | > 100 µM | > 100 µM | > 100 µM | > 100 µM
5 | O=[N+]([O-])c1cc(-c2ccc([As](=O)(O)O)cc2)ccc1[As](=O)(O)O | > 100 µM | > 100 µM | > 100 µM | > 100 µM | > 100 µM | > 100 µM | > 100 µM | > 100 µM | > 100 µM | > 100 µM
6 | Cc1nc(-n2nc(-c3ccccc3)cc2-c2ccccc2)sc1C(/C=C\c1ccc([N+](=O)[O-])cc1)=N/NC(=S)NN | 87.7 µM | > 100 µM | > 56.5 µM | 46 µM | > 53.4 µM | > 100 µM | 56.6 µM | > 100 µM | > 100 µM | > 86.6 µM
7 | CCOP(=O)(OCC)C(Cc1cn(S(=O)(=O)c2ccc(C)cc2)cn1)C(=O)O (stereo not given) | > 100 µM | > 100 µM | > 100 µM | > 100 µM | > 100 µM | > 100 µM | > 100 µM | > 100 µM | > 100 µM | > 100 µM
8 | COc1cc2c(cc1OC)C/C(=N\O)c1cc(OC)c(OC)cc1/C=C\2 | > 84.3 µM | > 61 µM | > 29.4 µM | > 100 µM | 8.26 µM | > 100 µM | > 100 µM | > 45 µM | > 100 µM | 45.5 µM
9 | COc1cc([C@@H]2c3cc4c(cc3[C@H](OC3OC5COC(C(C)C)OC5C(O)C3O)C3COC(=O)[C@@H]32)OCO4)cc(OC)c1OC (stereo not given in full) | 65.5 µM | > 23.8 µM | 17.5 µM | 12.5 µM | 20.4 µM | > 100 µM | 94.1 µM | > 100 µM | > 100 µM | 12.6 µM
10 | COC(=O)c1cc(NC(=O)Cn2c3ccccc3c3ccccc32)cn1C | > 100 µM | 86.3 µM | > 100 µM | 72.2 µM | > 100 µM | > 100 µM | > 100 µM | > 100 µM | > 100 µM | 58.5 µM
11 | CCc1cc2c(cc1O)CC[C@@H]1[C@@H]2CC[C@]2(C)[C@@H](O)CC[C@@H]12 | 32.9 µM | 12.1 µM | 20.8 µM | 17.8 µM | 20.4 µM | 21.3 µM | 29.2 µM | 16.3 µM | 14.5 µM | 26.6 µM
12 | CC(C)(C)c1ccc(OCCOc2ccc(C(C)(C)C)cc2NC=O)c(NC=O)c1 | > 86 µM | 25 µM | > 67.7 µM | 37.8 µM | 15.3 µM | > 100 µM | 26.4 µM | 32.6 µM | > 43.7 µM | 28.1 µM
